The values below come from US20250388535A1, “SULFONATED AND SULFATED ARYL-ALKYL COMPOUNDS USEFUL AS SURFACTANTS” (SPECIALTY OPERATIONS FRANCE, priority 2022, published 2025).

The series can be described thus: Surface activity: critical micelle concentration and surface tension by force tensiometer. Format: physicochemical. The settings on record: for CMC / Surface tension (at CMC): aqueous solution, room temperature; for Cross-sectional area: area occupied by the surfactant molecule at the surface; for Cross-sectional area / Surface excess: from Gibbs adsorption equation. The method, then:
Critical micelle concentrations (CMC) and surface tensions (ST) were measured for aqueous solutions of the surfactants of the present invention at room temperature using a force tensiometer (Sigma 700/701). Plots of surface tension against surfactant concentration were drawn allowing to determine CMC and surface tension at the CMC. Using the Gibbs adsorption equation it is possible to determine the surface excess as well as the area occupied by the surfactant molecule at the surface (as a reference see for example “Industrial Utilization of Surfactants: principles and practice”, M. J. Rosen and M. Dahanayake, 2000, ISBN 1893997111) which are important parameters to characterize a surfactant.

SMILES strings stand for the structures.

As for `CCCCCCCCCCCCCCC(C(O)c1ccccc1)S(=O)(=O)[O-].[Na+]` (centres unmarked) [PAS-C16], the CMC is on record as 0.22 mM, the “Surface tension (at CMC)” value is on record as 36 mN/m, the Cross-sectional area is 0.53 nm^2 and the Surface excess turned out to be 0.0031 mmol/m^2.

Turning to `CCCCCCCCCCCCCCC(C(=O)c1ccccc1)S(=O)(=O)[O-].[Na+]` (centres unmarked) [PAKS-C16], the CMC turned out to be 0.23 mM, the “Surface tension (at CMC)” value is recorded as 44 mN/m, the Cross-sectional area worked out at 0.64 nm^2 and the Surface excess came to 0.0026 mmol/m^2.
